Columns and labels:
Type in all cases: biochemical
[1] = biological target: T1, Arabidopsis thaliana BIO3-BIO1 (BioDA) mutants (Arabidopsis thaliana, UniProt B0F481, A609M); assay: BIO3-BIO1 mutant enzyme activity in the presence of herbicide, percentage inhibition (fluorometric DAPA assay); conditions: read-out: percentage inhibition
T1 construct: with the predicted N-terminal mitochondrial transit peptide removed; 6xHis-tag (N); thrombin cleavage site (N); made in house; host or cells: E. coli BL21 (DE3) bioA
From the text: (§1) A pet-24 plasmid containing a DNA sequence encoding each identified variant mutant of BIO3-BIO1 derived from Arabidopsis thaliana from example 5 above, as shown in Table 13 below and as shown in full in SEQ ID NOs: 15 to 155, codon-optimised for expression in E. coli, with an N-terminal 6×His-tag and thrombin cleavage site and under control of a T7 promoter, and was synthesised by Twist Bioscience, in a similar manner to SEQ ID NO:311. These plasmids were then expressed in E. coli BL21 (DE3) bioA with 50 μg/mL kanamycin and 25 μg/mL chloramphenicol selection. Overnight cultures grown at 37° C. were used to inoculate 8×500 mL AIM in shake flasks at a ratio of 1:100. Cultures were grown at 37° C., 200 rpm for 3.5 hours and then overnight at 20° C. Cells were harvested by centrifugation for 30 minutes at 10 000 g. Cells were stored at −80° C. until extraction. 30 g of cell pellet from was thawed in 120 mL of IMAC buffer A (20 mM HEPES pH7.5, 25 mM imidazole, 500 mM sodium chloride, 0.15 mM pyridoxal phosphate, 0.5 mM TCEP, 1× complete Protease Inhibitor Tablet (Roche)). The resuspension was passed through a cell disrupter at 18 000 PSI and centrifuged at 50 000 g for 25 minutes at 4° C. The His-tagged BIO3-BIO1 protein was purified from the extract supernatant on an AKTA avant chromatography system (Cytiva) using a HisTrap FF column and eluted in IMAC buffer B ((20 mM HEPES pH7.5, 500 mM imidazole, 500 mM sodium chloride, 0.15 mM pyridoxal phosphate, 0.5 mM TCEP) followed by SEC using a HiLoad 26/60 Superdex200 column in SEC buffer (25 mM HEPES pH7.5, 150 mM sodium chloride, 0.15 mM pyridoxal phosphate, 0.5 mM TCEP). Protein concentration was measured and calculated using the absorbance at 280 nm. Extracts were diluted 1 in 4 and 10 uL was analysed by SDS PAGE.
(§2) To measure BIO3-BIO1 mutant enzyme activity in the presence of herbicide, herbicides were incubated with 20 μL of enzyme mix (100 mM EPPS pH 8.6, 0.1 mM pyridoxal phosphate, 0.1 mg/mL BSA, 50 nM BIO3-BIO1 enzyme) for 10 minutes at 20° C. in a well of a 96-well half-area black plate, followed by the addition of 20 μL of substrate mix (final concentration of 100 mM EPPS pH 8.6, 0.1 mM pyridoxal phosphate, 0.1 mg/mL BSA, 100 μM spermidine, 20 μM KAPA, 100 mM NaCO3) and further incubation for 75 minutes at 20° C. The reaction was terminated by the addition of 50 μL of derivatisation mix (final concentration of 250 mM borate NaOH pH 9.4, 3.6 mM o-phthalaldehyde, 7 mM β-mercaptoethanol, 17% (v/v) ethanol, 3.6% (v/v) methanol). The fluorescent product produced by the reaction of DAPA with o-phthalaldehyde and 7 mM β-mercaptoethanol was measured at 470 nm after excitation at 410 nm. The percentage inhibition was calculated as the activity in the presence of one of three concentrations of each herbicide compound A to M (note that the compounds labelled as A to M are identified hereinabove in the relevant section of the description) as a percentage of the activity in DMSO (Table 12 and 13). The percentage activity versus WT was also calculated and is shown in Table 13 and 14 (NT indicates mutation not tested in table 13, note that these mutations are tested at different compound concentrations for compounds L, M and C, and the results are shown in table 14).

[2] = biological target: T2, Arabidopsis thaliana BIO3-BIO1 (BioDA) mutants (Arabidopsis thaliana, UniProt B0F481, G700S); assay: as above; conditions: read-out: percentage inhibition
T2 construct: with the predicted N-terminal mitochondrial transit peptide removed; 6xHis-tag (N); thrombin cleavage site (N); made in house; host or cells: E. coli BL21 (DE3) bioA
From the text: as §1, §2

[3] = biological target: T3, Arabidopsis thaliana BIO3-BIO1 (BioDA) mutants (Arabidopsis thaliana, UniProt B0F481, A609Y); assay: as above; conditions: read-out: percentage inhibition
T3 construct: with the predicted N-terminal mitochondrial transit peptide removed; 6xHis-tag (N); thrombin cleavage site (N); made in house; host or cells: E. coli BL21 (DE3) bioA
From the text: as §1, §2

[4] = biological target: T4, Arabidopsis thaliana BIO3-BIO1 (BioDA) mutants (Arabidopsis thaliana, UniProt B0F481, G608A); assay: as above; conditions: read-out: percentage inhibition
T4 construct: with the predicted N-terminal mitochondrial transit peptide removed; 6xHis-tag (N); thrombin cleavage site (N); made in house; host or cells: E. coli BL21 (DE3) bioA
From the text: as §1, §2

[5] = test system: Schizosaccharomyces japonicus BioDA; assay: BioDA enzyme activity with DMSO or herbicide in vitro
From the text: as §1, §2
The activity of various wild-type BioDA and variant enzymes was also tested when treated with DMSO or herbicide in vitro.
Protein of Schizosaccharomyces japonicus BioDA (SEQ ID NO:13), Nannochloropsis gaditana BioDA (SEQ ID NO:3), Selaginella moellendorffii BioDA (SEQ ID NO:319), Quercus robur BioDA (SEQ ID NOA11), Ostreococcus tauri BioDA (SEQ ID NO:9), and the variants of Ostreococcus tauri BioDA A374D, F332A and P407A (SEQ ID Nos:321-323) was prepared using the method in Example 6. BioDA enzyme activity in the presence of herbicide or DMSO in vitro for each of the proteins was assayed according to the enzyme assay method above. The results are shown in Table 26 provided below in the “TABLES” section.

[6] = biological target: T5, Arabidopsis thaliana BIO3-BIO1 (BioDA) mutants (Arabidopsis thaliana, UniProt B0F481, T512I); assay: BIO3-BIO1 mutant enzyme activity in the presence of herbicide, percentage inhibition (fluorometric DAPA assay); conditions: read-out: percentage inhibition
T5 construct: with the predicted N-terminal mitochondrial transit peptide removed; 6xHis-tag (N); thrombin cleavage site (N); made in house; host or cells: E. coli BL21 (DE3) bioA
From the text: as §1, §2

[7] = biological target: T6, Arabidopsis thaliana BIO3-BIO1 (BioDA) mutants (Arabidopsis thaliana, UniProt B0F481, Y511C); assay: as above; conditions: read-out: percentage inhibition
T6 construct: with the predicted N-terminal mitochondrial transit peptide removed; 6xHis-tag (N); thrombin cleavage site (N); made in house; host or cells: E. coli BL21 (DE3) bioA
From the text: as §1, §2

[8] = biological target: T7, Arabidopsis thaliana BIO3-BIO1 (BioDA) mutants (Arabidopsis thaliana, UniProt B0F481, Y511P); assay: as above; conditions: read-out: percentage inhibition
T7 construct: with the predicted N-terminal mitochondrial transit peptide removed; 6xHis-tag (N); thrombin cleavage site (N); made in house; host or cells: E. coli BL21 (DE3) bioA
From the text: as §1, §2

[9] = biological target: T8, Arabidopsis thaliana BIO3-BIO1 (BioDA) mutants (Arabidopsis thaliana, UniProt B0F481, T512N); assay: as above; conditions: read-out: percentage inhibition
T8 construct: with the predicted N-terminal mitochondrial transit peptide removed; 6xHis-tag (N); thrombin cleavage site (N); made in house; host or cells: E. coli BL21 (DE3) bioA
From the text: as §1, §2

T8 sequence (B0F481 23-833 T512N): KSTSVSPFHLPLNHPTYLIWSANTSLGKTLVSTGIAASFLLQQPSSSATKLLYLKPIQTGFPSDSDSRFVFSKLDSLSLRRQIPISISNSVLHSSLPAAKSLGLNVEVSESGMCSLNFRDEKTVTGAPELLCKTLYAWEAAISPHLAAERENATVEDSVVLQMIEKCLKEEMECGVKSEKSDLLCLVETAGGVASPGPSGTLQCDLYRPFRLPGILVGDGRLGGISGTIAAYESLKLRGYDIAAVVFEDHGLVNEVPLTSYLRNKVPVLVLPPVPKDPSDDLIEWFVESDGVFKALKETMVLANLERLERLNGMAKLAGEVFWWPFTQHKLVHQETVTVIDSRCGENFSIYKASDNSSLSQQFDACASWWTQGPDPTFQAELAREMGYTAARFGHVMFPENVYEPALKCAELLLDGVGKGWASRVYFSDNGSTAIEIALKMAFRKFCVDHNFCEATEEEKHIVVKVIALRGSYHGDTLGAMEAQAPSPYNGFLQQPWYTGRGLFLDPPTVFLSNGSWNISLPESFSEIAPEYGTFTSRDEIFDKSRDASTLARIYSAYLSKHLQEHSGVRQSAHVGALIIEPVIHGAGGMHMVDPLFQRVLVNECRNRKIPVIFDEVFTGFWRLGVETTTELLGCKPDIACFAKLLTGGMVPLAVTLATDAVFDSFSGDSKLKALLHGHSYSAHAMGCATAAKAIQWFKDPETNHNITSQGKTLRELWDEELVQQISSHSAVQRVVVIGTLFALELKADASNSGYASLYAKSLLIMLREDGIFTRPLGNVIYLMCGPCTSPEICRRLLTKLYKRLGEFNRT
T5 sequence (B0F481 23-833 T512I): as the sequence (B0F481 23-833 T512N) above, with N490I counted along it
T4 sequence (B0F481 23-833 G608A): as the sequence (B0F481 23-833 T512N) above, with N490T, G586A counted along it
T2 sequence (B0F481 23-833 G700S): as the sequence (B0F481 23-833 T512N) above, with N490T, G678S counted along it
T6 sequence (B0F481 23-833 Y511C): as the sequence (B0F481 23-833 T512N) above, with Y489C, N490T counted along it
T7 sequence (B0F481 23-833 Y511P): as the sequence (B0F481 23-833 T512N) above, with Y489P, N490T counted along it
T3 sequence (B0F481 23-833 A609Y): as the sequence (B0F481 23-833 T512N) above, with N490T, A587Y counted along it
T1 sequence (B0F481 23-833 A609M): as the sequence (B0F481 23-833 T512N) above, with N490T, A587M counted along it

Question: Which inhibition at 0.01 µM [1] does the source give for CCn1c(Cn2ccc(C(F)(F)F)n2)cc(=O)c(C(=O)O)c1-c1ccc(Cl)c(Cl)c1 [Compound L, 2-(3,4-dichlorophenyl)-1-ethyl-4-oxo-6-[[3-(trifluoromethyl)pyrazol-1-yl]methyl]pyridine-3-carboxylic acid] here?
Answer: 3%

Question: What about the inhibition at 0.075 µM [1] of the same molecule?
Answer: 17%

Question: What about the inhibition at 0.5 µM [1] of the same molecule?
Answer: 19%

Question: What about the inhibition at 0.01 µM [2] of the same molecule?
Answer: 9%

Question: What about the inhibition at 0.075 µM [2] of the same molecule?
Answer: 3%

Question: What about the inhibition at 0.5 µM [2] of the same molecule?
Answer: 3%

Question: What about the inhibition at 0.01 µM [3] of the same molecule?
Answer: 0%

Question: And the inhibition at 0.075 µM [3]?
Answer: 0%

Question: And the inhibition at 0.5 µM [3]?
Answer: 0%

Question: What about the inhibition at 0.01 µM [4] of the same molecule?
Answer: 6%

Question: And the inhibition at 0.075 µM [4]?
Answer: 17%

Question: What about the inhibition at 0.5 µM [4] of the same molecule?
Answer: 68%

Question: And the “% Inhibition relative to DMSO treatment” value ([5]; 0.5 μM)?
Answer: 0%

Question: What about the “% Inhibition relative to DMSO treatment” value ([5]; 31 μM) of the same molecule?
Answer: 55%

Question: What about the “% Inhibition relative to DMSO treatment” value ([5]; 500 μM) of the same molecule?
Answer: 94%

Question: With CCn1c(C)c(-c2ccc(F)cc2F)c(=O)c(C(=O)O)c1-c1ccc(Cl)c(Cl)c1 [Compound C, 2-(3,4-dichlorophenyl)-5-(2,4-difluorophenyl)-1-ethyl-6-methyl-4-oxo-pyridine-3-carboxylic acid] as the molecule, how does the inhibition at 0.2 µM [1] read?
Answer: 9%

Question: And the inhibition at 1 µM [1]?
Answer: 5%

Question: And the inhibition at 5 µM [1]?
Answer: 13%

Question: And the inhibition at 0.2 µM [2]?
Answer: 9%

Question: What about the inhibition at 1 µM [2] of the same molecule?
Answer: 0%

Question: And the inhibition at 5 µM [2]?
Answer: 9%

Question: And the inhibition at 0.2 µM [3]?
Answer: 0%

Question: And the inhibition at 1 µM [3]?
Answer: 0%

Question: What about the inhibition at 5 µM [3] of the same molecule?
Answer: 43%

Question: What about the inhibition at 0.2 µM [6] of the same molecule?
Answer: 60%

Question: And the inhibition at 1 µM [6]?
Answer: 96%

Question: And the inhibition at 5 µM [6]?
Answer: 99%

Question: And the inhibition at 0.2 µM [7]?
Answer: 33%

Question: And the inhibition at 1 µM [7]?
Answer: 86%

Question: And the inhibition at 5 µM [7]?
Answer: 98%

Question: And the inhibition at 0.2 µM [8]?
Answer: 53%

Question: What about the inhibition at 1 µM [8] of the same molecule?
Answer: 95%

Question: And the inhibition at 5 µM [8]?
Answer: 99%

Question: What about the inhibition at 0.2 µM [9] of the same molecule?
Answer: 29%

Question: And the inhibition at 1 µM [9]?
Answer: 74%

Question: What about the inhibition at 5 µM [9] of the same molecule?
Answer: 93%

Question: And the inhibition at 0.2 µM [4]?
Answer: 11%

Question: What about the inhibition at 1 µM [4] of the same molecule?
Answer: 42%

Question: And the inhibition at 5 µM [4]?
Answer: 81%

Question: And the “% Inhibition relative to DMSO treatment” value ([5]; 0.5 μM)?
Answer: 17%

Question: CC(O)C(N)CCCCC(=O)O.Cl (stereo not shown) [Compound B, [5-carboxy-1-(1-hydroxyethyl)pentyl]ammonium chloride] was tested. Which “% Inhibition relative to DMSO treatment” value ([5]; 200 μM) did it give?
Answer: 70%

Question: How did the “% Inhibition relative to DMSO treatment” value ([5]; 200 μM) turn out when C[C@@H](N)COc1cccc(C(=O)O)n1.Cl.Cl [Compound E, [(1R)-2-(6-carboxypyridin-1-ium-2-yl)oxy-1-methyl-ethyl]ammonium dichloride] was run?
Answer: 28%

Question: Which results are given for CCn1c(-c2ccc(Cl)c(Cl)c2)c(C(=O)O)c(=O)c2cc(F)ccc21 [Compound M, 2-(3,4-dichlorophenyl)-1-ethyl-6-fluoro-4-oxo-quinoline-3-carboxylic acid]?
Answer: inhibition at 0.2 µM [1]: 5%; inhibition at 1 µM [1]: 0%; inhibition at 5 µM [1]: 11%; inhibition at 0.2 µM [2]: 8%; inhibition at 1 µM [2]: 0%; inhibition at 5 µM [2]: 9%; inhibition at 0.2 µM [3]: 0%; inhibition at 1 µM [3]: 4%; inhibition at 5 µM [3]: 45%; inhibition at 0.2 µM [6]: 48%; inhibition at 1 µM [6]: 85%; inhibition at 5 µM [6]: 96%; inhibition at 0.2 µM [7]: 16%; inhibition at 1 µM [7]: 67%; inhibition at 5 µM [7]: 92%; inhibition at 0.2 µM [8]: 48%; inhibition at 1 µM [8]: 89%; inhibition at 5 µM [8]: 98%; inhibition at 0.2 µM [9]: 27%; inhibition at 1 µM [9]: 74%; inhibition at 5 µM [9]: 93%; inhibition at 0.2 µM [4]: 12%; inhibition at 1 µM [4]: 38%; inhibition at 5 µM [4]: 74%; % Inhibition relative to DMSO treatment ([5]; 0.5 μM): 15%; % Inhibition relative to DMSO treatment ([5]; 31 μM): 95%; % Inhibition relative to DMSO treatment ([5]; 500 μM): 99%

Question: With CCn1c(C)c(-c2cc(OC(F)(F)F)ccc2Cl)c(=O)c(C(=O)O)c1-c1ccc(Cl)c(Cl)c1 [Compound D, 5-[2-chloro-5-(trifluoromethoxy)phenyl]-2-(3,4-dichlorophenyl)-1-ethyl-6-methyl-4-oxo-pyridine-3-carboxylic acid] as the molecule, how does the “% Inhibition relative to DMSO treatment” value ([5]; 0.5 μM) read?
Answer: 87%

Question: Which inhibition at 1 µM [1] does the source give for CCOC(=O)c1nn(-c2ccc3c(c2)OC(F)(F)C(F)(F)O3)c2cccc(C(C)=O)c2c1=O [Compound A, ethyl 5-acetyl-4-oxo-1-(2,2,3,3-tetrafluoro-1,4-benzodioxin-6-yl)cinnoline-3-carboxylate] here?
Answer: 3%

Question: What about the inhibition at 1 µM [2] of the same molecule?
Answer: 0%

Question: And the inhibition at 1 µM [3]?
Answer: 0%

Question: What about the inhibition at 1 µM [6] of the same molecule?
Answer: 37%

Question: And the inhibition at 1 µM [7]?
Answer: 0%

Question: And the inhibition at 1 µM [8]?
Answer: 28%

Question: And the inhibition at 1 µM [9]?
Answer: 21%

Question: And the inhibition at 1 µM [4]?
Answer: 10%

Question: And the “% Inhibition relative to DMSO treatment” value ([5]; 25 μM)?
Answer: 2%
